Results: US20100015174A1, “METHOD TO CONTROL DENGUE VIRUSES IN HUMANS BY PICOLINIC ACID AND DERIVATIVES THEREOF” (priority 2008, published 2010)
Values after ≈ are worked out from the molar mass of the structure shown. Values joined by “and” are separate entries in the source; they are usually repeats but may differ in a detail not shown here. Equal entries are not always repeated. Where two headings read alike, the source gives them in different places.

Tests used:
[1] = test system: Sindbis replicon; test: Sindbis replicon (qRTCPCR/iCycler) in Huh7B/Sindbis cells; assay type: cell-based, Sindbis virus; conditions: for inhibition of Sindbis replicon: at all concentrations tested
Procedure: (§1) Here we determine the effects of Picolinic acid and Fusaric Acid on Sindbis replicon in Huh7B/Sindbis cells. The Sindbis replicons were studied by qRTCPCR/iCycler. Normalization by OD and serial dilutions were done in the untreated cell line. The experimental design was as follows: cells were grown in 12 well cell culture plates; the compounds interaction was done for 24 hours; at extraction, cell confluence was 75%; and RNA was extracted using Qiagen Rneasy extraction kit.

[2] = test system: human hepatitis B virus (HBV); test: HBV DNA by real-time PCR after 9-day treatment of HepG2.2.15 cells; assay type: cell-based; conditions: 9 days; for EC50: 216 h, HepG2.2.15 cells, read-out: overall EC50 against HBV; for inhibition at 60 µg/mL / inhibition at 250 µg/mL: HepG2.2.15, 216 h; for inhibition at 60 µg/mL: 60 ug/mL; for inhibition at 250 µg/mL: 250 ug/mL
Procedure: (§2) Here we evaluate the antiviral efficacy of picolinic acid and fusaric acid against human hepatitis B virus (HBV). HepG2.2.15 cells, a cell line that was stably transfected with HBV genome was used to study the antiviral effects of PA and FA against HBV. HepG2.2.15 cells were cultured under standard conditions. HepG2.2.15 cells were seeded in a 96-well plate at 2×10^4 cells/well and grown for 24 hours. The medium was replaced with 100 uL of medium containing PA at increasing concentrations (0, 10, 100, 250, and 500 ug/mL). The concentrations of FU used were 0, 1, 10, 30, 60, and 100 ug/mL. The cells were incubated at 37° C. for 9 days. The control medium and the medium containing the antivirals were changed every 24 hours. At day 9, the culture medium containing the released HBV virions was collected, the cells washed with PBS, and lysed with lysis buffer. All samples were stored at −70° C. until analyzed.
HBV DNA from drug-treated […] cell culture medium and cell lysates was extracted using QIAamp DNA mini kit, according to manufacturer's specifications.
PCR reaction was performed in 20 uL, comprising the following compounds: dH2O; 25 mM MgCl2; 10 uM sense primer; 10 uM antisense primer; LightCycler Probe 1 (fluorescent-labeled, 5 uM); LightCycler Probe 2 (LC Red 640-labeled, 10 uM); LC FastStart DNA Master Hyb Probes; and Uracil DNA glycosylase (1 uL).
PCR mix was aliquoted and 5 uL DNA template was then added to the PCR mix. A range of HBV plasmid DNA (1×10^8, 1×10^7, 1×10^6, [ . . . ], 1×10^2, 25 copies) were used as standards for quantitative analysis.
To study the antiviral activities of PA and FA against HBV, HepG2.2.15 cells were incubated with increasing concentrations of test compounds for 9 days with medium change daily. At day 9, the medium containing secreted HBV virions was collected and used for extraction of extracellular virus DNA. The cells were lysed by 0.5% SDS and used for extraction of intracellular virus DNA. DNA was extracted using Qiagen column and then quantitatively detected by real-time PCR assay.

[3] = test system: VZV Ellen strain; test: VZV virus yield reduction assay in HEL-299 cells (real-time PCR); assay type: cell-based, Varicella-Zoster Virus; conditions: for Total VZV DNA copies (mean) / Total VZV DNA, % of control: 3 days
[4] = test system: BVDV Trangie strain; test: BVDV virus yield reduction in MDBK cells (immunoperoxidase staining); assay type: cell-based, Bovine Viral Diarrhea Virus; conditions: 3 days
Procedure: BVDV Trangie strain, a well characterized non-cytopathic Australian isolate, was used in this study. The virus was cultured in MDBK cells (ATCC), and titred by immunoperoxidase staining.
80% confluent MDBK cells were infected with BVDV at a moi of 0.01 at 37° C. for 1 h. After viral inoculums was removed, Infected cells were washed with PBS and then incubated with culture medium containing PA at concentrations of 0, 10, 100, 250, 500, and 1000 ug/mL or FA at concentrations of 0, 1, 10, 30, 60, and 100 ug/mL at 37° C. for 3 days. The culture medium was then collected and stored at −70° C. The cells were harvested by one frozen/thawed cycle and centrifugation to pellet debris. The supernatant was collected and stored at −70° C.
PA of FA-treated cultures were 10-fold serially diluted, 50 uL of each dilution was added to 80% confluent MDBK cells in a 96-well plate, and incubated at 37° C. for 1 h. The innoculum was removed by washing with PBS once. The Infected cells were covered with 200 uL of 0.5% methylcellulose in culture medium and incubated at 37° C. for 2 days. After washing with PBS, the cells were fixed with 200 uL of 5% formalin in PBS for 10 min at room temperature. Subsequently, they were washed with 0.05% Tween −20/dH2O three times. Then, the cells were incubated with 50 uL mixture of three monoclonal antibodies against BVDV NS3 for 80 min at 37° C. in a humidified box. The cells were then washed as above and incubated with 50 uL of rabbit anti-mouse IgG Peroxidase-conjugate (DAKO) diluted 1:200 in 1% gelatin/PBS for 90 min at 37° C. in a humidified box. After final washes as described above, 200 uL of 3-amino-9-ethyl-carbazole was added to each well and incubated at room temperature for 30 min until the cells were stained.
The BVDV closely resembles HCV persistent Infection. After Infection with BVDV cultured MBDK were treated with different concentrations of PA or FA for 3 days. The antiviral effect was determined by virus yield reduction assays (i.e. staining using monoclonal antibodies against NS3, or titration of intracellular and extracellular virus by immunoperoxidase staining.

[5] = test system: Huh7B/Sindbis cells; test: Cytotoxicity by OD in Sindbis replicon cells; assay type: cell-based; conditions: concentrations tested
Procedure: as §1

[6] = test system: HepG2.2.15 cells; test: Toxicity to HepG2.2.15 cells (9-day treatment); assay type: cell-based
Procedure: as §2

[7] = test system: HEL cells; test: Toxicity to HEL cells
[8] = read-out: inhibition of intracellular HBV DNA
[9] = read-out: inhibition of released HBV DNA

SMILES: CCCCc1ccc(C(=O)O)nc1 [FA, fusaric acid]
- Sindbis replicon % CTRL ([1]; FA 5, 24 hours): 14.0 % CTRL
- Sindbis replicon AVE ([1]; FA 5, 24 hours): 22.7
- Sindbis replicon, single reading ([1]; FA 5, 24 hours): 22.7 and 23.3 and 23.1 and 21.7
- Sindbis replicon % CTRL ([1]; FA 25, 24 hours): 11.6 % CTRL
- Sindbis replicon AVE ([1]; FA 25, 24 hours): 22.9
- Sindbis replicon, single reading ([1]; FA 25, 24 hours): 23.0 and 22.7 and 22.4 and 23.5
- Sindbis replicon % CTRL ([1]; FA 50, 24 hours): 9.3 % CTRL
- Sindbis replicon AVE ([1]; FA 50, 24 hours): 23.3
- Sindbis replicon, single reading ([1]; FA 50, 24 hours): 22.8 and 23.4 and 22.7 and 24.2
- Sindbis replicon % CTRL ([1]; FA 100, 24 hours): 8.8 % CTRL
- Sindbis replicon AVE ([1]; FA 100, 24 hours): 23.5
- Sindbis replicon, single reading ([1]; FA 100, 24 hours): 22.2 and 23.8 and 24.0 and 23.9
- inhibition of Sindbis replicon [1]: > 85%
- EC50 [2]: > 60 µg/mL
- inhibition at 60 µg/mL [2, 8]: 28%
- inhibition at 60 µg/mL [2, 9]: 76.5%
- Total VZV DNA copies (mean) ([3]; FA 1 μg/ml): 753340 copies
- Total VZV DNA, % of control ([3]; FA 1 μg/ml): 77.7 % of control
- Total VZV DNA copies (mean) ([3]; FA 10 μg/ml): 685520 copies
- Total VZV DNA, % of control ([3]; FA 10 μg/ml): 70.7 % of control
- Total VZV DNA copies (mean) ([3]; FA 30 μg/ml): 103405 copies
- Total VZV DNA, % of control ([3]; FA 30 μg/ml): 10.7 % of control
- Total VZV DNA copies (mean) ([3]; FA 60 μg/ml): 66230 copies
- Total VZV DNA, % of control ([3]; FA 60 μg/ml): 6.8 % of control
- EC50 ([3]; Human alphaherpesvirus 3, HEL 299, read-out: EC50 against VZV replication, 50% reduction of total VZV DNA copies, HEL-299 cells): ~14 µg/mL (≈ 78.1 µM)
- EC90 ([3]; Human alphaherpesvirus 3, HEL 299, read-out: EC90 against VZV replication, total VZV DNA copies, HEL-299 cells): ~41 µg/mL (≈ 229 µM)
- BVDV virus yield ([4]; FA 1 μg/ml): 2.4 × 10^5 (pfu/ml)
- BVDV virus yield, % of control ([4]; FA 1 μg/ml): 80.0 % of control
- BVDV virus yield ([4]; FA 10 μg/ml): 1.8 × 10^5 (pfu/ml)
- BVDV virus yield, % of control ([4]; FA 10 μg/ml): 60.0 % of control
- BVDV virus yield ([4]; FA 30 μg/ml): 2.5 × 10^5 (pfu/ml)
- BVDV virus yield, % of control ([4]; FA 30 μg/ml): 83.3 % of control
- BVDV virus yield ([4]; FA 60 μg/ml): 1.5 × 10^5 (pfu/ml)
- BVDV virus yield, % of control ([4]; FA 60 μg/ml): 50.0 % of control
- activity against BVDV ([4]; MDBK cells): active
- overt cytotoxicity by OD [5]: No overt cytotoxicity
- toxicity to HepG2.2.15 cells ([6]; 100 ug/ml): 100 ug/ml was toxic to HepG2.2.15 cells.
- toxicity to HEL cells ([7]; 60 ug/mL): no significant toxicity

SMILES: O=C(O)c1ccccn1 [PA, picolinic acid]
- Sindbis replicon % CTRL ([1]; PA 100, 24 hours): 6.5 % CTRL
- Sindbis replicon AVE ([1]; PA 100, 24 hours): 23.7
- Sindbis replicon, single reading ([1]; PA 100, 24 hours): 24.1 and 23.7 and 23.5 and 23.6
- Sindbis replicon % CTRL ([1]; PA 300, 24 hours): 11.3 % CTRL
- Sindbis replicon AVE ([1]; PA 300, 24 hours): 23.3
- Sindbis replicon, single reading ([1]; PA 300, 24 hours): 24.3 and 23.7 and 21.6
- Sindbis replicon % CTRL ([1]; PA 400, 24 hours): 6.7 % CTRL
- Sindbis replicon AVE ([1]; PA 400, 24 hours): 23.7
- Sindbis replicon, single reading ([1]; PA 400, 24 hours): 24.0 and 23.5 and 23.2 and 24.3
- inhibition of Sindbis replicon [1]: greater than 90%
- Sindbis replicon % CTRL ([1]; column PA 200, 24 hours): 6.5 % CTRL
- Sindbis replicon AVE ([1]; column PA 200, 24 hours): 23.8
- Sindbis replicon, single reading ([1]; column PA 200, 24 hours): 24.1 and 22.9 and 24.2
- EC50 [2]: ~139 µg/mL (≈ 1130 µM)
- inhibition at 250 µg/mL [2, 8]: 79.4%
- inhibition at 250 µg/mL [2, 9]: 72.3%
- EC50 ([3]; Human alphaherpesvirus 3, 50% reduction of total VZV DNA copies, HEL-299 cells, read-out: EC50 against VZV replication): ~89 µg/mL (≈ 723 µM)
- EC90 ([3]; Human alphaherpesvirus 3, total VZV DNA copies, HEL-299 cells, read-out: EC90 against VZV replication): ~505 µg/mL (≈ 4100 µM)
- reduction of BVDV virus yield ([4]; 250 ug/mL): 76%
- EC50 ([4]; Bovine viral diarrhea virus isolates and strains, 72 h, MDBK cells, read-out: EC50 against BVDV): 60 µg/mL (≈ 487 µM)
- activity against BVDV ([4]; MDBK cells): active
- BVDV virus yield ([4]; PA 10 μg/ml): 3.2 × 10^5 (pfu/ml)
- BVDV virus yield, % of control ([4]; PA 10 μg/ml): 78.0 % of control
- BVDV virus yield ([4]; PA 100 μg/ml): 2.5 × 10^5 (pfu/ml)
- BVDV virus yield, % of control ([4]; PA 100 μg/ml): 61.0 % of control
- BVDV virus yield ([4]; PA 250 μg/ml): 1.0 × 10^5 (pfu/ml)
- BVDV virus yield, % of control ([4]; PA 250 μg/ml): 24.4 % of control
- BVDV virus yield ([4]; PA 500 μg/ml): 0.35 × 10^5 (pfu/ml)
- BVDV virus yield, % of control ([4]; PA 500 μg/ml): 8.5 % of control
- overt cytotoxicity by OD [5]: no overt cytotoxicity
- toxicity to HepG2.2.15 cells ([6]; 500 ug/ml): 500 ug/ml was slightly toxic to HepG2.2.15 cells.
- toxicity to HEL cells ([7]; 500 ug/mL): no significant toxicity
